Reference: patent US11607403B2, “Methods and compositions for promoting adult neurogenesis” (Morningside Ventures Limited, priority 2015, dated 2023)
“Also recorded” adds a separate entry of the source.

Assays:
mouse hippocampus [1] = experiment: Neural progenitor amplification (BrdU incorporation) after intracerebroventricular osmotic pump infusion; assay type: in vivo; details: 1 mM intracerebroventricular, 0.5 μl per hour, 7 days, compared to allopurinol or vehicle alone
Procedure: To assess the effects of febuxostat on neural progenitor amplification, febuxostat or allopurinol (1 mM) were intracerebroventricularly delivered via osmotic pump infusion (0.5 μl per hour) to mouse brains for 7 days. Control subjects received vehicle alone. BrdU was administered in four injections on day 6, and brain tissues were harvested on day 7. Neural progenitor amplification was measured by quantifying the number of BrdU-positive cells in the subgranular zone (SGZ) of hippocampal tissue sections.

mouse hippocampus [2] = experiment: Neuronal differentiation (DCX with BrdU) after intracerebroventricular osmotic pump infusion; assay type: in vivo; details: 1 mM intracerebroventricular 7 days, tissue harvested day 14, compared to allopurinol or vehicle alone
Procedure: To assess the effects of febuxostat on adult neurogenesis, febuxostat or allopurinol (1 mM) were delivered to mouse brains for 7 days as described above. BrdU was administered in eight injections over days 2-3. The osmotic pump was removed on day 7 and brain tissues were harvested on day 14. The hippocampal slices were subjected to immunohistochemical analysis for the detection of BrdU and doublecortin (DCx) (newly formed neuron marker) stained cells in the subgranular zone of the hippocampus.

[3] = system: hippocampus of mice subjected to chronic restraint stress; experiment: Neural progenitor amplification (BrdU-positive cells) in mice under chronic restraint stress; assay type: in vivo, mouse; details: for neuron progenitor amplification (BrdU incorporation): vs allopurinol, vehicle and unrestrained controls, n=3 mice
Procedure: (§1) Murine subjects underwent CRS on day zero, with febuxostat (1 mg kg^−1 d^−1) allopurinol (20 mg kg^−1 d^−1), Rhy37 (10 mg kg^−1 d^−1), or vehicle alone, administered daily intragastrically beginning on day 15. BrdU was administered on day 36, and brain tissues harvested on day 37 or 50. Control subjects remained free throughout the trial period. Neural progenitor amplification was measured by quantifying the number of BrdU-positive cells in hippocampal tissue sections. […] Results were compared using a one-way ANOVA test.

[4] = system: hippocampus of mice subjected to chronic restraint stress; experiment: Neuronal differentiation (DCX+/BrdU-positive cells) in mice under chronic restraint stress; assay type: in vivo, mouse
Procedure: as §1

[5] = CRS mice, daily intragastric from day 15, harvest day 37 or 50, compared to allopurinol or vehicle alone

SMILES: Cc1nc(-c2ccc(OCC(C)C)c(C#N)c2)sc1C(=O)O [febuxostat, 2-(3-cyano-4-isobutoxyphenyl)-4-methyl-1,3-thiazole-5-carboxylic acid]
- neural progenitor amplification (BrdU-positive cells in the subgranular zone) (mouse hippocampus [1]): promotes neural progenitor amplification; also recorded: increased levels
- neural differentiation (BrdU and doublecortin stained cells in the subgranular zone) (mouse hippocampus [2]): neuronal differentiation; also recorded: increased levels
- neuron progenitor amplification (BrdU incorporation) ([3]; 37 days of chronic restraint stress): promotes neuron progenitor amplification
- neuron progenitor amplification (BrdU incorporation) ([3]; 50 days of chronic restraint stress): promotes neuron progenitor amplification
- neural progenitor amplification (BrdU-positive cells) [3, 5]: increased levels
- neuronal differentiation (DCX expression with BrdU incorporation) ([4]; 50 days of chronic restraint stress, vs allopurinol, vehicle and unrestrained controls): promotes neuronal differentiation
- neural differentiation (DCX+/BrdU-positive cells) [4, 5]: increased levels
